From US9868727B2, “Factor XIa inhibitors” (Merck Sharp & Dohme Corp., priority 2014, dated 2018)
pIC50: −log10 of the molar value.

Key:
[1] = target: T1, purified human Factor XIa (Homo sapiens, UniProt P03951); test: Factor XIa Assay; assay type: biochemical; settings: fluorogenic substrate Z-Gly-Pro-Arg-AFC 100 μM, 40 pM enzyme, pH 7.4, read-out: F11a IC50
T1 construct: purified human Factor XIa; purchased Sekisui Diagnostics
Method: The effectiveness of a compound of the present invention as an inhibitor of Coagulation Factor XIa can be determined using a relevant purified serine protease, and an appropriate synthetic substrate. The rate of hydrolysis of the chromogenic or fluorogenic substrate by the relevant serine protease was measured both in the absence and presence of compounds of the present invention. Assays were conducted at room temperature or at 37° C. […] A decrease in the rate of fluorescence change in the presence of inhibitor is indicative of enzyme inhibition. Such methods are known to one skilled in the art. […]
Factor XIa determinations were made in 50 mM HEPES buffer at pH 7.4 containing 150 mM NaCl, 5 mM CaCl2, and 0.1% PEG 8000 (polyethylene glycol; JT Baker or Fisher Scientific). Determinations were made using purified human Factor XIa at a final concentration of 40 pM (Sekisui Diagnostics) and he synthetic substrate, Z-Gly-Pro-Arg-AFC, TFA salt (Sigma #C0980) at a concentration of 100 μM.
Activity assays were performed by diluting a stock solution of substrate at least tenfold to a final concentration ≦0.1 Km into a solution containing enzyme or enzyme equilibrated with inhibitor. Times required to achieve equilibration between enzyme and inhibitor were determined in control experiments. Initial velocities of product formation in the absence (VO) or presence of inhibitor (Vi) were measured. Assuming competitive inhibition, and that unity is negligible compared Km/[S], [I]/e, and [I]/e (where [S], [I], and e respectively represent the total concentrations, of substrate, inhibitor and enzyme), the equilibrium constant (Ki) for dissociation of the inhibitor from the enzyme can be obtained from the dependence of VO/Vi on [I] shown in the following equation.

[2] = target: T2, purified Human plasma kallikrein (Homo sapiens, UniProt P03952); test: Kallikrein Assay; assay type: biochemical; settings: Plasma Kallekrein IC50; fluorogenic substrate Acetyl-K-P-R-AFC, 0.5 nM enzyme, pH 7.4; read-out: PK IC50
T2 construct: yields a heavy chain (371 amino acids) and a light chain (248 amino acids); purchased Enzyme Research Laboratories
T2 sequence (P03952 391-638 limits assumed): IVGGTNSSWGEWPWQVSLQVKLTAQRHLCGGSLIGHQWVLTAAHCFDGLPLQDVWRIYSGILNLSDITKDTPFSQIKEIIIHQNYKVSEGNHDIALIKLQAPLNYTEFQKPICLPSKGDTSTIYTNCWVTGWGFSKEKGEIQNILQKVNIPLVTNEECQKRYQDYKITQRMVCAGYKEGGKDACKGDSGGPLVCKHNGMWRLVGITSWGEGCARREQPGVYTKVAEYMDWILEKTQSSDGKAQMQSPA
T2 sequence (P03952 20-390 partner limits assumed): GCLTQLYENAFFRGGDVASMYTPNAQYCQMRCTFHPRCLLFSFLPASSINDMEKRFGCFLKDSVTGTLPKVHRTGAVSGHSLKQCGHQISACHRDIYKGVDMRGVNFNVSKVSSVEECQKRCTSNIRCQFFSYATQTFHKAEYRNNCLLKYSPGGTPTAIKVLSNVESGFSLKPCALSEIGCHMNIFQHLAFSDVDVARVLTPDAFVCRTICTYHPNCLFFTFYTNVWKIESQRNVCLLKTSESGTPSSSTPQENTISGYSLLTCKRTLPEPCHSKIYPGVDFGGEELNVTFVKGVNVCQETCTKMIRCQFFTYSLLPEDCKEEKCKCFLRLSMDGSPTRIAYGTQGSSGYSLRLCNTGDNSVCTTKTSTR
Method: The effectiveness of a compound of the present invention as an inhibitor of Kallikrein can be determined using a relevant purified serine protease, and an appropriate synthetic substrate. The rate of hydrolysis of the chromogenic or fluorogenic substrate by the relevant serine protease was measured both in the absence and presence of compounds of the present invention. Assays were conducted at room temperature or at 37° C. […] A decrease in the rate of fluorescence change in the presence of inhibitor is indicative of enzyme inhibition. Such methods are known to one skilled in the art. The results of this assay are expressed as the inhibitory constant, K1.
Kallikrein determinations were made in 50 mM HEPES buffer at pH 7.4 containing 150 mM NaCl, 5 mM CaCl2, and 0.1% PEG 8000 (polyethylene glycol; Fisher Scientific). Determinations were made using purified Human plasma kallikrein at a final concentration of 0.5 nM (Enzyme Research Laboratories) and the synthetic substrate, Acetyl-K—P—R-AFC (Sigma # C6608) at a concentration of […].
Times required to achieve equilibration between enzyme and inhibitor were determined in control experiments. The reactions were performed under linear progress curve conditions and fluorescence increase measured at 405 Ex/510 Em nm. […] IC50 was determined by inflection point from a four parameter logistic curve fit. Ki was calculated using the Cheng Prusoff equation, Ki=IC50/(1+([S]/Km)).

T1 sequence (P03951 388-625 limits assumed): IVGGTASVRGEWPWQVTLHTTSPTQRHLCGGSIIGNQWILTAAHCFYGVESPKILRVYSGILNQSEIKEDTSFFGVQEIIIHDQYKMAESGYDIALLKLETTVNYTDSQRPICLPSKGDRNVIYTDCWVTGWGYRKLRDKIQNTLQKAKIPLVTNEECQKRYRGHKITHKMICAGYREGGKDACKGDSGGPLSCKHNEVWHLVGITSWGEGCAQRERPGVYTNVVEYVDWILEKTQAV
T1 sequence (P03951 19-387 partner limits assumed): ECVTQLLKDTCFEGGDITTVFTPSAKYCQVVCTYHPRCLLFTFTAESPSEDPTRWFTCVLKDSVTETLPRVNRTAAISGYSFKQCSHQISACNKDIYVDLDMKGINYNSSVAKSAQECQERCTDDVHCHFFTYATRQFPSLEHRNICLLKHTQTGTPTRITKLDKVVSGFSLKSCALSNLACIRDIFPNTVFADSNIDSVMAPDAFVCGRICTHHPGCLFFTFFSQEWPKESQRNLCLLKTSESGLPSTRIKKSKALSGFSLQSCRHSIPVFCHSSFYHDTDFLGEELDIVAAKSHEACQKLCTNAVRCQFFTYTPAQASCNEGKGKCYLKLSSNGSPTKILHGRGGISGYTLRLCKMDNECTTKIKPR

Compound	pIC50 [1]	pIC50 [2]
COC(=O)Nc1ccc(-c2c[nH]c(C(Cc3ccc(F)cc3)c3ccc(-c4c(C(F)F)ccc(Cl)c4F)c[n+]3[O-])n2)cc1 (racemic) [Example 13, 5-(3-Chloro-6-(difluoromethyl)-2-fluorophenyl)-2-(2-(4-fluorophenyl)-1-(4-(4-((methoxycarbonyl)amino)phenyl)-1H-imidazol-2-yl)ethyl)pyridine 1-oxide]	7.95	7.99
COC(=O)Nc1ccc(-c2cnc(C(CC3CC3)c3ccc(-c4cc(Cl)ccc4-n4cc(Cl)nn4)c[n+]3[O-])[nH]2)cc1 (racemic) [Example 67]	8.19	6.68
COC(=O)Nc1ccc(-c2cnc(C(CC3CC3)c3ccc(-c4cc(Cl)ccc4-c4csnn4)c[n+]3[O-])[nH]2)cc1 (racemic) [Example 72]	7.29	5.58
COC(=O)Nc1ccc(-c2nnc(C(Cc3ccccc3)c3ccc(-c4cc(Cl)ccc4-n4cnnn4)c[n+]3[O-])o2)cc1 (racemic) [Example 83, 5-(5-chloro-2-(1H-tetrazol-1-yl)phenyl)-2-(1-(5-(4-((methoxycarbonyl)amino)phenyl)-1,3,4-oxadiazol-2-yl)-2-phenylethyl)pyridine 1-oxide]	8.92	7.17
[O-][n+]1cc(-c2cc(Cl)ccc2-n2cnnn2)ccc1C(Cc1ccccc1)c1nc(-c2cccc(F)c2)c[nH]1 (single isomer, unassigned) [Example 3]	8.54	7.56
[O-][n+]1cc(-c2cc(Cl)ccc2-n2cnnn2)ccc1C(Cc1ccccc1)c1nc(-c2cccc(F)c2)c[nH]1 (single isomer, unassigned) [Example 4]	7.41	6.20
COC(=O)Nc1ccc(-c2c[nH]c(C(Cc3ccccc3)c3ccc(-c4c(F)ccc(Cl)c4F)c[n+]3[O-])n2)cc1 (single isomer, unassigned) [Example 5]	7.37	6.86
O=C(O)c1ccc(-c2cnc(C(Cc3ccccc3)c3ccc(-c4cc(Cl)ccc4-n4cnnn4)c[n+]3[O-])[nH]2)cc1 (single isomer, unassigned) [Example 7]	7.99	6.33
O=C(O)c1ccc(-c2cnc(C(Cc3ccccc3)c3ccc(-c4cc(Cl)ccc4-n4cnnn4)c[n+]3[O-])[nH]2)cc1 (single isomer, unassigned) [Example 8]	9.17	7.59
O=C(O)c1scc(-c2c[nH]c(C(Cc3ccccc3)c3ccc(-c4cc(Cl)ccc4-n4cnnn4)c[n+]3[O-])n2)c1F (single isomer, unassigned) [Example 9]	9.72	9.03
O=C(O)c1scc(-c2c[nH]c(C(Cc3ccccc3)c3ccc(-c4cc(Cl)ccc4-n4cnnn4)c[n+]3[O-])n2)c1F (single isomer, unassigned) [Example 10]	8.00	6.93
COC(=O)Nc1ccc(-c2c[nH]c(C(Cc3ccc(F)cc3)c3ccc(-c4cc(Cl)ccc4C(F)F)c[n+]3[O-])n2)cc1 (single isomer, unassigned) [Example 11, 5-(5-chloro-2-(difluoromethyl)phenyl)-2-(2-(4-fluorophenyl)-1-(4-(4-((methoxycarbonyl)amino)phenyl)-1H-imidazol-2-yl)ethyl)pyridine 1-oxide]	8.73	8.00
[O-][n+]1cc(-c2cc(Cl)ccc2-n2cnnn2)ccc1C(Cc1ccc(F)cc1)c1nc(-c2ccc(F)cc2)c[nH]1 (single isomer, unassigned) [Example 16]	8.42	9.11
[O-][n+]1cc(-c2cc(Cl)ccc2-n2cnnn2)ccc1C(Cc1ccc(F)cc1)c1nc(-c2ccc(F)cc2)c[nH]1 (single isomer, unassigned) [Example 17]	7.83	6.39
N#Cc1ccc(-c2c[nH]c(C(Cc3ccc(F)cc3)c3ccc(-c4cc(Cl)ccc4-n4cnnn4)c[n+]3[O-])n2)cc1 (single isomer, unassigned) [Example 20]	8.81	7.54
[O-][n+]1cc(-c2cc(Cl)ccc2-n2cnnn2)ccc1C(Cc1ccc(F)cc1)c1nc(-c2ccc(Cl)cc2)c[nH]1 (single isomer, unassigned) [Example 22]	8.19	6.71
N#Cc1ccc(-c2cnc(C(CC3CC3)c3ccc(-c4cc(Cl)ccc4-n4cnnn4)c[n+]3[O-])[nH]2)cc1 (single isomer, unassigned) [Example 29, 4-[2-(1-{5-[5-chloro-2-(1H-tetrazol-1-yl)phenyl]-1-oxidopyridin-2-yl}-2-cyclopropylethyl)-1H-imidazol-5-yl]benzonitrile]	8.55	6.65
[O-][n+]1cc(-c2cc(Cl)ccc2-n2cnnn2)ccc1C(CC1CC1)c1ncc(-c2cccc(F)c2)[nH]1 (single isomer, unassigned) [Example 32]	7.83	6.37
COC(=O)Nc1ccc(-c2cnc(C(CC3CC3)c3ccc(-c4cc(Cl)ccc4-n4cnnn4)c[n+]3[O-])[nH]2)c(C)c1 (single isomer, unassigned) [Example 33]	7.72	6.20
COC(=O)Nc1ccc(-c2cnc(C(CC3CC3)c3ccc(-c4cc(Cl)ccc4-n4cnnn4)c[n+]3[O-])[nH]2)c(C)c1 (single isomer, unassigned) [Example 34]	9.62	7.50
N#Cc1cccc(-c2cnc(C(CC3CC3)c3ccc(-c4cc(Cl)ccc4-n4cnnn4)c[n+]3[O-])[nH]2)c1 (single isomer, unassigned) [Example 36]	7.56	6.42
COC(=O)Nc1ccc(-c2cnc(C(CC3CC3)c3ccc(-c4cc(Cl)ccc4-n4cnnn4)c[n+]3[O-])[nH]2)c(F)c1 (single isomer, unassigned) [Example 38]	9.32	7.41
COC(=O)Nc1ccc(-c2cnc(C(CC3CC3)c3ccc(-c4cc(Cl)ccc4-n4cnnn4)c[n+]3[O-])[nH]2)cc1F (single isomer, unassigned) [Example 40]	8.82	7.41
COC(=O)Nc1ccc(-c2cnc(C(CC3CC3)c3ccc(-c4cc(Cl)ccc4-n4cnnn4)c[n+]3[O-])[nH]2)c(Cl)c1 (single isomer, unassigned) [Example 41]	7.63	6.40
COC(=O)Nc1ccc(-c2cnc(C(CC3CC3)c3ccc(-c4cc(Cl)ccc4-n4cnnn4)c[n+]3[O-])[nH]2)c(Cl)c1 (single isomer, unassigned) [Example 42]	9.24	7.55
COC(=O)Nc1ccc(-c2cnc(C(CC3(C)CC3)c3ccc(-c4cc(Cl)ccc4-n4cnnn4)c[n+]3[O-])[nH]2)cc1 (single isomer, unassigned) [Example 43]	7.32	6.05
COC(=O)Nc1ccc(-c2cnc(C(CC3(C)CC3)c3ccc(-c4cc(Cl)ccc4-n4cnnn4)c[n+]3[O-])[nH]2)cc1 (single isomer, unassigned) [Example 44]	8.82	7.83
COC(=O)Nc1ccc(-c2c[nH]c(C(CC3CC3)c3ccc(-c4c(-n5cnnn5)ccc(Cl)c4F)c[n+]3[O-])n2)cc1 (single isomer, unassigned) [Example 63, 5-(3-chloro-2-fluoro-6-(1H-tetrazol-1-yl)phenyl)-2-(2-cyclopropyl-1-(4-(4-((methoxycarbonyl)amino)phenyl)-1H-imidazol-2-yl)ethyl)pyridine 1-oxide]		6.64
COC(=O)Nc1ccc(-c2c[nH]c(C(CC3CC3)c3ccc(-c4c(-n5cnnn5)ccc(Cl)c4F)c[n+]3[O-])n2)cc1 (single isomer, unassigned) [Example 64, 5-(3-chloro-2-fluoro-6-(1H-tetrazol-1-yl)phenyl)-2-(2-cyclopropyl-1-(4-(4-((methoxycarbonyl)amino)phenyl)-1H-imidazol-2-yl)ethyl)pyridine 1-oxide]		8.25
